The source of these data is patent US9221827B2, “Antimicrobial compounds and methods of making and using the same” (Melinta Therapeutics, Inc., priority 2011, dated 2015).

The test system of one assay is Escherichia coli strain ATCC25922. The assay is described as follows: standard microdilution assay to determine minimum inhibitory concentrations (MICs). The class given is cell-based. Particulars: Escherichia coli strain ATCC25922, microdilution. In a few lines:
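Broth microdilution per CLSI (M7-A8/M100-S20), 100 μl final volume, with reference-strain quality control; MIC is the lowest inhibitory concentration. Scored "+"/"−" against a 16 micrograms/ml cutoff, "N/A" where unavailable.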
In general terms: Dilution methods test growth across graded concentrations, often in twofold steps.
Turning to `N=C(N)NCCCNCc1ccc(-n2cc3cc(-c4c(Cl)ccc(CCCCN)c4Cl)[nH]c3nc2=O)cc1` [Compound 10], the “E. coli ATCC25922 MIC” value was “+ (a “+” indicates that the compound has an MIC value of 16 micrograms/ml or less)”.

As for `C=CC(NCCCNC(=N)N)c1ccc(-n2cc3cc(-c4cc(CCCC(C)N)cc(C(F)(F)F)c4)[nH]c3nc2=O)cc1` (stereo not shown) [Compound 482], the “E. coli ATCC25922 MIC” value is listed as “+ (a “+” indicates that the compound has an MIC value of 16 micrograms/ml or less)”.

For the compound `CC(N)CCCc1cc(OC(F)F)c(F)c(-c2cc3cn(-c4ccc(C(C)NCCCNC(=N)N)cc4)c(=O)nc3[nH]2)c1` (stereo not shown) [Compound 299], the “E. coli ATCC25922 MIC” value is on record as “+ (a “+” indicates that the compound has an MIC value of 16 micrograms/ml or less)”.

For the compound `C[C@H](N)CCCc1cc(SC(F)(F)F)c(F)c(-c2cc3cn(-c4ccc([C@H](C)NCCCNC(=N)N)cc4)c(=O)nc3[nH]2)c1` [Compound 471], the “E. coli ATCC25922 MIC” value is reported as “+ (a “+” indicates that the compound has an MIC value of 16 micrograms/ml or less)”.

Turning to `CC(N)CCCc1cc(-c2cc3cn(-c4ccc(C(NCCCNC(=N)N)C(=O)O)cc4)c(=O)nc3[nH]2)cc(C(F)(F)F)c1` (stereo not shown) [Compound 497], the “E. coli ATCC25922 MIC” value was “− (a “−” indicates that the compound has an MIC value greater than 16 micrograms/ml)”.

In the case of `N=C(N)NCCCCc1cc(F)c(Cl)c(-c2cc3cn(-c4ccc(CNCCCNC(=N)N)cc4)c(=O)nc3[nH]2)c1` [Compound 38], the “E. coli ATCC25922 MIC” value is listed as “+ (a “+” indicates that the compound has an MIC value of 16 micrograms/ml or less)”.

`CC(C)(CN)CCc1cc(Cl)c(F)c(-c2cc3cn(-c4ccc(CNCCCNC(=N)N)cc4)c(=O)nc3[nH]2)c1` [Compound 243]: the “E. coli ATCC25922 MIC” value is given as “+ (a “+” indicates that the compound has an MIC value of 16 micrograms/ml or less)”.

With `CC(C)c1cc(CCC[C@H](C)N)cc(-c2cc3cn(-c4ccc(CNCCCNC(=N)N)cc4)c(=O)nc3[nH]2)c1Cl` [Compound 261], the “E. coli ATCC25922 MIC” value is on record as “+ (a “+” indicates that the compound has an MIC value of 16 micrograms/ml or less)”.

Regarding `CNC[C@@H]1C[C@@H](NC(=O)Nc2nc(=O)c(-c3ccc(CNCCCNC(=N)N)cc3)c[nH]2)CN1C[C@@H](C)CN` [Compound 151], the “E. coli ATCC25922 MIC” value is “+ (a “+” indicates that the compound has an MIC value of 16 micrograms/ml or less)”.

On to `C[C@H](NCCCNC(=N)N)c1ccc(-n2cc3cc(-c4cc(CCC5COCC5N)cc(OC(F)(F)F)c4)[nH]c3nc2=O)cc1` (stereo partly shown) [Compound 477], for which the “E. coli ATCC25922 MIC” value is given as “+ (a “+” indicates that the compound has an MIC value of 16 micrograms/ml or less)”.

`CC(N)CCc1cc(OC(F)(F)F)cc(-c2cc3cn(-c4ccc(CNCCCNC(=N)N)cc4)c(=O)nc3[nH]2)c1` (stereo not shown) [Compound 260]: the “E. coli ATCC25922 MIC” value was “+ (a “+” indicates that the compound has an MIC value of 16 micrograms/ml or less)”.

Regarding `CNC(C)CCCc1cc(Cl)c(F)c(-c2cc3cn(-c4ccc(CNCCCNC(=N)N)cc4)c(=O)nc3[nH]2)c1` (stereo not shown) [Compound 292], the “E. coli ATCC25922 MIC” value is “+ (a “+” indicates that the compound has an MIC value of 16 micrograms/ml or less)”.

For the compound `CC(N)CCCc1cc(OC(F)(F)F)c(Cl)c(-c2cc3cn(-c4ccc(CNCCCNC(=N)N)cc4)c(=O)nc3[nH]2)c1` (stereo not shown) [Compound 281], the “E. coli ATCC25922 MIC” value is recorded as “+ (a “+” indicates that the compound has an MIC value of 16 micrograms/ml or less)”.

Still in this assay, the particulars now being: Escherichia coli strain ATCC25922, standard microdilution assay.
Take `CC(NCCCNC(=N)N)c1ccc(-n2cc3cc(-c4cc(C5CCC(CN)CC5)cc(C(F)(F)F)c4)[nH]c3nc2=O)cc1` (mixture of isomers) [Compound 430]: the “E. coli ATCC25922 MIC” value is “+ (a “+” indicates that the compound has an MIC value of 16 micrograms/ml or less)”.

As to `N=C(N)NCCCNCc1ccc(-n2cc3cc(-c4cc(CC5CC(N)C5)cc(Cl)c4F)[nH]c3nc2=O)cc1` (stereo not shown) [Compound 333], the “E. coli ATCC25922 MIC” value is given as “+ (a “+” indicates that the compound has an MIC value of 16 micrograms/ml or less)”.

For the compound `CC(NCCCNC(=N)N)c1ccc(-n2cc3cc(-c4cc(C5CCC(N)CC5)cc(C(F)(F)F)c4)[nH]c3nc2=O)cc1` (mixture of isomers) [Compound 426], the “E. coli ATCC25922 MIC” value is recorded as “+ (a “+” indicates that the compound has an MIC value of 16 micrograms/ml or less)”.

In the case of `C[C@H](NCCCNC(=N)N)c1ccc(-n2cc3cc(-c4cc(COCC(C)(C)N)cc(C(F)(F)F)c4)[nH]c3nc2=O)cc1` [Compound 455], the “E. coli ATCC25922 MIC” value is on record as “+ (a “+” indicates that the compound has an MIC value of 16 micrograms/ml or less)”.

For the compound `C[C@H](N)CCCc1cc2c(c(-c3cc4cn(-c5ccc(CNCCCNC(=N)N)cc5)c(=O)nc4[nH]3)c1)COC2` [Compound 442], the “E. coli ATCC25922 MIC” value is reported as “+ (a “+” indicates that the compound has an MIC value of 16 micrograms/ml or less)”.

Consider `CC(NCCCNC(=N)N)c1ccc(-n2cc3cc(-c4cc(COC5CC(N)C5)cc(OC(F)(F)F)c4)[nH]c3nc2=O)cc1` (mixture of isomers) [Compound 423], for which the “E. coli ATCC25922 MIC” value is “+ (a “+” indicates that the compound has an MIC value of 16 micrograms/ml or less)”.

Take `CC(NCCCNC(=N)N)c1ccc(-n2cc3cc(-c4cc(CCCC(N)CO)cc(Cl)c4F)[nH]c3nc2=O)cc1` (stereo not shown) [Compound 391]: the “E. coli ATCC25922 MIC” value is on record as “+ (a “+” indicates that the compound has an MIC value of 16 micrograms/ml or less)”.

Take `CN=C(N)NCCCNC(C)c1ccc(-n2cc3cc(-c4cc(CCCC(C)N)cc(Cl)c4F)[nH]c3nc2=O)cc1` (stereo not shown) [Compound 348]: the “E. coli ATCC25922 MIC” value is given as “+ (a “+” indicates that the compound has an MIC value of 16 micrograms/ml or less)”.

As for `C[C@H](NCCCNC(=N)N)c1ccc(-n2cc3cc(-c4cc(CC[C@@H](C)N)cc(SC(F)(F)F)c4)[nH]c3nc2=O)cc1` [Compound 398], the “E. coli ATCC25922 MIC” value is reported as “+ (a “+” indicates that the compound has an MIC value of 16 micrograms/ml or less)”.
